Measured values reported in US20190336453A1, “ORAL DISPERSIBLE FILM COMPOSITION” (BonAyu Lifesciences Private Limited, priority 2017, published 2019).

Experiments:
Type in all cases: physicochemical
[1] = Gas chromatography assay of actives in mouth freshener film; details: for Assay result (%): GC result relative to formula content, mouth freshener film; for GC Result (%): content in mouth freshener film
From the text: Gas Chromatography is quantitative study use to determine assay of actives. GC was done by Bangalore Testing Laboratories Pvt. Ltd., Bangalore (FIG. 8). The GC is used to observe whether the active is intact in the film without its decomposition. Table 15 illustrated all the characteristic peaks of the actives (menthol, thymol, methyl salicylate, eucalyptol) used in the composition.

UV assay of actives = details: UV absorbance at λmax, sample vs standard; ODF samples Examples 3-5
Protocol: A stock solution of 1000 μg/ml of alpha lipoic acid were prepared in methanol and measured absorbance at 322 nm.
Standard β-carotene for identification was prepared in DCM to obtain 1000 μg/mL and measured absorbance at 461 nm.
2 ml of the standard and sample solution of folic acid was taken in marked test tubes. In each test tube, 2 ml of 0.02% potassium permanganate solution, 2 ml 2% […] solution, 2 ml 4 M hydrochloric acid solution, 1 ml 5% ammonium sulphamate solution and 1 ml dye solution (0.1% N, N diethyl aniline dye solution in iso propyl alcohol) added and mixed well, then kept for 15 minute at room temperature. It was absorbance recorded at 535 nm against blank.
2 ml of the standard and sample solution of Vitamin B6 was taken in marked test tubes. In each test tube, 1 ml of ammonium buffer (in water), 1 ml of 20% sodium acetate (in water), 1 ml of 5% boric acid (in water) and 1 ml dye (2,6-di-chloroquinine chorimide) solution added and mixed well. It was absorbance recorded at 650 nm against blank.
The assay were prepared of standard and sample solutions of four actives, that is, lipoic acid, β-carotene, folic acid and Vitamin B6 respectively.

[2] = Thermogravimetric analysis (TGA); details: 30-360° C. at 20° C./min
Protocol: Thermogravimetric analysis (TGA) studies (Perkin Elmer Pyris 1, Shelton, Conn., USA) were performed to estimate the thermal stability of the actives and excipients during HME processing. Data were analyzed using Pyris software. The API excipients were heated from 30-360° C. at 20° C./min.

[3] = In-vitro disintegration time during formulation development (saliva stimulant and flavour optimisation)
From the text: The purpose of using saliva stimulating agents is to increase the rate of production of saliva that would aid in the faster disintegration of the rapid dissolving strip formulations.
The concentration of menthol, eucalyptol and sucralose was optimized according to the mouth feel, freshening effect and the formulation was checked for its effect on disintegration time (Table 5).

[4] = Raman spectroscopy for stability of active after HME; details: ODF containing Vitamin B12 (Example 6), Raman spectra
Protocol: Raman spectroscopy is a spectroscopic technique commonly used in chemistry to provide a structural fingerprint by which molecules can be identified. It can identify a particular molecule/API based on the Raman shift. The formulated ODFs were analyzed using Raman spectra for identification of stability of active in the delivery system after processing using HME. The Raman spectra was recorded with a LabRam HR800 (Horiba Jovan Yvon, UK) equipped with a 534-nm Ar—Ne laser. The laser excitation was focused using a 50 objective (Olympus Corporation, Japan) and the scattered light was totally transmitted through the notch filter towards the confocal hole and entrance slit of the spectrograph. The stokes-shifted Raman scatter was dispersed using a […] grating onto a peltier-cooled changed-coupled device (CCD, Andor Technology PLC) to capture a spectrum. Each sample had their spectra measured using […] excitation (at 534 nm) of 250 mW and continuous readout of Raman shift spectrum from 0 to 3500 cm^−1. Spectra were acquired using a 50× objective and a […] confocal hole. A 600 lines/mm rotatable diffraction grating along a path length of 800 mm was used to simultaneously scan a range of frequencies. Raman spectra were collected using a Synapse CCD detector (1024 pixels).

Molecule | Assay result (%) [1] | GC Result (%) [1] | Assay of actives Result (%) (UV assay of actives) | also measured
CC1CCC(C(C)C)C(O)C1 (centres unmarked) [Menthol] | 92.1% | 0.035% |  | 
Nc1nc2ncc(CNc3ccc(C(=O)N[C@@H](CCC(=O)O)C(=O)O)cc3)nc2c(=O)[nH]1 [Folic acid] |  |  | 99.1% | 
O=C(O)CCCCC1CCSS1 (centres unmarked) [Lipoic acid] |  |  | 100.5% | 
OC[C@H]1O[C@H](O[C@]2(CCl)O[C@H](CCl)[C@@H](O)[C@@H]2O)[C@H](O)[C@@H](O)[C@H]1Cl [Sucralose] |  |  |  | loss of weight [2]: < 7%
O=C(O)CC(O)(CC(=O)O)C(=O)O [Citric acid] |  |  |  | Disintegration time ([3]; saliva stimulating agent at 1 % composition): 14 s; Disintegration time ([3]; saliva stimulating agent at 5 % composition): Less than 10 seconds; Disintegration time ([3]; saliva stimulating agent at 10 % composition): Less than 10 seconds
COC(=O)c1ccccc1O [Methyl Salicylate] | 92.8% | 0.052% |  | 
CC1=C(/C=C/C(C)=C/C=C/C(C)=C/C=C/C=C(C)/C=C/C=C(C)/C=C/C2=C(C)CCCC2(C)C)C(C)(C)CCC1 [B carotene] |  |  | 98.28% | 
Vit B6 |  |  | 99.3% | 
Vitamin B12 |  |  |  | stability of active after twin-screw HME processing [4]: does not degrade
Cc1ccc(C(C)C)c(O)c1 [Thymol] | 104.3% | 0.097% |  | 
CC12CCC(CC1)C(C)(C)O2 [Eucalyptol] | 96.6% | 0.023(cineole % |  | 
